Laboratory results published in US5952000A, “Fatty acid esters of lactic acid salts as permeation enhancers” (TheraTech, Inc., priority 1997, dated 1999).

Key:
[1] = In vitro skin flux, estradiol from organic solvent based adhesive matrix (Example 3); assay type: in vitro ADME, human; conditions: organic solvent based acrylic PSA; vs free acid form
Procedure: Pressure sensitive adhesive matrix systems prepared according to the following steps. First, the solids content of the adhesive solution (water or organic solvent based) was determined by placing a known weight of solution in a weighed aluminum dish and evaporating the solvents overnight in a 70° C. convection oven. The solid adhesive content of the solution was calculated by dividing the adhesive solid weight after drying by the initial total solution weight. Next, a weighed quantity of adhesive solution was added to a glass bottle and the drug substance, permeation enhancer, and other excipients were weighed and added to the adhesive solution in a quantity necessary to achieve the desired dry matrix film composition. […]
The following sampling procedure was used for all dosage forms. At predetermined sampling time points, the entire contents of the receiver compartment were collected for drug quantitation and the receiver compartment was filled with fresh solution, taking care to eliminate any air bubbles at the skin/solution interface. The cumulative amount of drug permeated per unit area at any time t(Qt, μg/cm^2) was determined as follows: [formula] where CN is the concentration (μg/ml) of the drug in the receiver sample for the corresponding sample time, V is the volume of fluid in the receiver chamber (~6.3 cm^3), and A is the diffusional area of the cell (0.64 cm^2).

[2] = In vitro skin flux, diclofenac from adhesive matrix systems (Example 8); assay type: in vitro ADME, human
Procedure: The effect of fatty acid lactylate salts on the permeation of a model acidic drug from some copolymer adhesive matrix systems was evaluated using diclofenac, a non-steroidal anti-inflammatory. The following matrix systems were prepared to test the effect of fatty acid lactylate salts on the permeation of this acidic compound from copolymer adhesives: (a) Diclofenac acid at 1.8% (w/w) in Durotak 87-2516 (National Starch and Chemical, New Jersey), a solvent based acrylic adhesive, at 92.8% (w/w) (Formula 8-A); (b) sodium diclofenac at 2.0% (w/w) in Nacor 72-9965 (National Starch and Chemical Company, New Jersey), an aqueous emulsion based acrylic adhesive, at 98% (w/w) (Formula 8-C); sodium diclofenac at 2.0% (w/w) and Robond PS-20 (Rohm and Haas, Philadelphia, Pa.) an aqueous emulsion based acrylic adhesive, at 93.6% (w/w) with polyvinylpyrrolidone (PVP, Kollidon 90, BASF, New Jersey) at 2.0% (w/w) as a thickening agent (Formula 8-E).

[3] = In vitro skin flux, testosterone from saturated aqueous solution (Example 1)
Procedure: (§1) In vitro skin flux studies were conducted using human cadaver epidermal membrane in modified Franz non-jacketed diffusion cells. […] This method involves the exposure of the full-thickness skin to water at 60° C. for a time period of 60 seconds. After this period, the epidermal membrane was gently peeled off the dermis and stored for later use in aluminum foil at -5° C.
Permeation experiments with aqueous solutions were performed using pre-saturated drug solutions containing excess drug solid (infinite dose). Prior to skin permeation experiments, the epidermal membrane was allowed to hydrate over night as described above. […]
(§2) The following sampling procedure was used for all dosage forms. At predetermined sampling time points, the entire contents of the receiver compartment were collected for drug quantitation and the receiver compartment was filled with fresh solution, taking care to eliminate any air bubbles at the skin/solution interface. The cumulative amount of drug permeated per unit area at any time t(Qt, μg/cm^2) was determined as follows: [formula] where CN is the concentration (μg/ml) of the drug in the receiver sample for the corresponding sample time, V is the volume of fluid in the receiver chamber (~6.3 cm^3), and A is the diffusional area of the cell (0.64 cm^2). […]

[4] = In vitro skin flux, clonidine from adhesive matrix systems (Example 7); assay type: in vitro ADME, human
Procedure: Permeation enhancement by a fatty acid lactylate salt was also evaluated with the basic antihypertensive drug clonidine in both free base and HCl acid addition salt forms. […] (Formulas 7-B, 7-D, 7-F and 7-H respectively).

[5] = In vitro skin flux, testosterone from hydroalcoholic gel (Example 2)
Procedure: as §1
Permeation experiments with hydroalcoholic gels were performed using finite occluded doses. The occluded dose is an appropriate in vitro model for the application of a transdermal patch drug delivery system containing a liquid or gel reservoir.
Occluded dosing experiments were set-up according to the following procedure. […]
as §2

[6] = In vitro skin flux, buspirone free base from organic solvent based acrylic adhesive (Example 5); assay type: in vitro ADME, human; conditions: organic solvent based acrylic PSA
Procedure: Permeation enhancement of the potassium salt form of lauroyl lactylic acid using buspirone free base as a model drug was evaluated in an organic solvent based acrylic pressure sensitive adhesive.

[7] = In vitro skin flux, buspirone HCl from aqueous emulsion based acrylic PSA (Example 4); assay type: in vitro ADME, human
Procedure: Permeation enhancement of the potassium salt form of lauroyl lactylic acid (R.I.T.A. Corp., Woodstock, Ill.) in an aqueous emulsion based acrylic pressure sensitive adhesive (PSA) was evaluated using buspirone HCl as a model drug.

| Molecule | effectiveness as permeation enhancer (in words) [1] | increase in permeation, acid form of diclofenac ([2]; […] sodium lauroyl lactylate, Table 8-1) | effectiveness as enhancer (in words) ([2]; all of the matrix systems tested) | permeation enhancement (in words) [3] | increase of clonidine permeation over unenhanced counterpart ([4]; aqueous emulsion based matrix systems, Tables 7-1, 7-2, 7-3) | effectiveness as enhancer (in words) ([4]; clonidine HCl, aqueous emulsion based matrix systems) | effectiveness as enhancer (in words) ([4]; clonidine base, organic solvent based adhesive matrix, Table 7-4) | permeation enhancement (in words) [5] | enhancement by free acid form compared with Formulas 8-D and 8-F (in words) ([2]; aqueous emulsion based adhesives, "will show") | enhancement by free acid form compared with Formula 8-B (in words) ([2]; solvent based adhesive, "will show") | effectiveness as permeation enhancer (in words) [6] | effectiveness as permeation enhancer (in words) [7] |
| --- | --- | --- | --- | --- | --- | --- | --- | --- | --- | --- | --- | --- |
| CCCCCCCCCCCC(=O)OC(C)C(=O)OC(C)C(=O)[O-].[Na+] (centres unmarked) [sodium lauroyl lactylate] | less effective as a permeation enhancer than the free acid form | about 50% | consistently effective enhancer | significant permeation enhancement | about two fold | consistently effective enhancer | not an effective enhancer | significant permeation enhancement |  |  |  |  |
| CCCCCCCCCCCC(=O)OC(C)C(=O)O (centres unmarked) [lauroyl lactylic acid, reference compound] |  |  |  | significant permeation enhancement |  |  |  | significant permeation enhancement | significant reduction in enhancement | somewhat comparable results |  |  |
| potassium lauroyl lactylate |  |  |  |  |  |  |  |  |  |  | not an effective permeation enhancers | unexpectedly effective permeation enhancer |
